The compounds below were run on causal fungus of apple tree scab (Venturia inaequalis) (assay: Test on the controlling efficacy against apple tree scab). Conditions: apple seedling, foliar application, 4-fold concentration 200 ppm, 14 days after inoculation.
Assay type: in vivo
Excerpt: A seedling of an apple tree (the variety: Ohrin) grown in a pot was subjected to foliar application with a diluted emulsion of the emulsifiable concentrate of the compound of the present invention prepared in accordance with Formulation Example 1, which diluted emulsion was produced by diluting the concentrate with water to the specifically determined volume. On the following day after the application, the seedling was inoculated by spraying with a spore suspension of the causal fungus of apple tree scab (Venturia inaequalis) as obtained by culture on the PSA medium and maintained at 20° C. under humid conditions. Fourteen days after the inoculation, the protective value (%) was determined in accordance with the equation (1), and the controlling efficacy was assessed according the below-described criteria of judgment. [formula]

Question: For `O=C(NCCc1cccc(C(F)(F)F)c1)c1c(Cl)cccc1Cl` [comparison compound A, 2,6-dichloro-N-[2-{3-(trifluoromethyl)phenyl}ethyl]benzamide], which “controlling efficacy, criteria of judgment (protective value)” value is on record?
Answer: The value was 0 (Less than 9% in protective value).

These compounds were tested on southern root-knot nematode (Meloidogyne incognita) (assay: Test on the controlling efficacy against southern root-knot nematode). Conditions: melon nursery plant, plant foot irrigation, 500 ppm, 8 days after inoculation.
Assay type: in vivo
Design: key: A: No root knot.; B: Apparently smaller number of root knots than in non-treated section were present.; C: Root knots in the number equivalent to or higher than in non-treated section were present
Method: An emulsion prepared by diluting an emulsifiable concentrate of the compound of the present invention, which was prepared in accordance with Formulation Example 1, to 500 ppm was irrigated to the plant foot of a pot-cultivated nursery plant raised from the seed of melon. One day after the irrigation, an aqueous suspension (about 500 nematodes/ml) of southern root-knot nematode was inoculated (soil irrigation) to a treated section and a non-treated section, and the pot was placed in a greenhouse at 25° C. Eight days after the inoculation, the root was washed with water, the number of root knots was counted, and the effect was assessed according to the following criteria of judgment. • Criteria of Judgment • A: No root knot. • B: Apparently smaller number of root knots than in non-treated section were present. • C: Root knots in the number equivalent to or higher than in non-treated section were present.

Question: `O=C(NCC1(c2ccc(Cl)cc2Cl)CC1)c1nccnc1Cl` [3′-43] was tested. Which “effect on number of root knots, criteria of judgment” value (from here on “effect on number of root knots”) did it give?
Answer: Its value is “B”.

Question: Which “effect on number of root knots” value does the source give for `CC(Cc1ccc(Cl)cc1Cl)NC(=O)c1nccnc1Cl` (stereo not drawn) [3′-44] here?
Answer: The value was “B”.

Question: For `Cc1nccnc1C(=O)NCCc1ccc(-c2ccc(OC(F)(F)F)cc2)cc1` [3″-48], which “effect on number of root knots” value is on record?
Answer: The value was “B”.

Question: How did the “effect on number of root knots” value turn out when `O=C(NCC1(c2ccc(Cl)cc2Cl)CC1)c1ccccc1C(F)(F)F` [1-34] was run?
Answer: Its value is “B”.

Question: For `O=C(NCCc1ccc(Cl)cc1Cl)c1ccccc1C(F)(F)F` [1-16], which “effect on number of root knots” value is on record?
Answer: Its value is “B”.
